According to patent publication US20240158446A1, “CYCLIC COMPOUND HAVING SELECTIVE INHIBITORY ACTION ON KRAS OVER HRAS AND NRAS” (CHUGAI SEIYAKU KABUSHIKI KAISHA, priority 2021, published 2024):

Experiments:
[1] = molecular target: GDP-bound NRAS wild-type protein (Homo sapiens, UniProt P01111); experiment: Binding to NRAS by surface plasmon resonance (SPR), Single Cycle Kinetics; settings: SPR, GDP-bound NRAS wild-type protein vs GDP-bound KRAS wild-type protein
[2] = test system: human lung cancer strain NCI-H441;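 also: cell proliferation inhibition after four days measured by CellTiter-Glo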
[3] = molecular target: GDP-bound HRAS wild-type protein (Homo sapiens, UniProt P01112); experiment: Binding to HRAS by surface plasmon resonance (SPR), Single Cycle Kinetics; settings: SPR, GDP-bound HRAS wild-type protein vs GDP-bound KRAS wild-type protein
[4] = molecular target: GDP-bound KRAS wild-type protein (Homo sapiens, UniProt P01116); experiment: Binding to KRAS by surface plasmon resonance (SPR), Single Cycle Kinetics; settings: SPR, Single Cycle Kinetics, GDP-bound KRAS wild-type protein; read-out: KRAS KD
Sequence of GDP-bound KRAS wild-type protein (P01116 whole entry): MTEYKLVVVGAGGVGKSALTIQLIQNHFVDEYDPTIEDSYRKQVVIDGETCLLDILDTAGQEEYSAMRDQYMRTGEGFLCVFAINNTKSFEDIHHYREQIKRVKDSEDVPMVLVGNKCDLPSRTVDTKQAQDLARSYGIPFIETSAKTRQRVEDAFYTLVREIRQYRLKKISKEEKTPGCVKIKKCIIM

Sequence of GDP-bound HRAS wild-type protein (P01112 whole entry): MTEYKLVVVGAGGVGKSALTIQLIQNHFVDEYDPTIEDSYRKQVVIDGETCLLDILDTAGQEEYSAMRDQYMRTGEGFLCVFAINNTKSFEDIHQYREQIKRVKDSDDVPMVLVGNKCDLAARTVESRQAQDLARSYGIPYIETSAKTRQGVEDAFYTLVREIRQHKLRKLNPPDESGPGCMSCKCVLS
Sequence of GDP-bound NRAS wild-type protein (P01111 whole entry): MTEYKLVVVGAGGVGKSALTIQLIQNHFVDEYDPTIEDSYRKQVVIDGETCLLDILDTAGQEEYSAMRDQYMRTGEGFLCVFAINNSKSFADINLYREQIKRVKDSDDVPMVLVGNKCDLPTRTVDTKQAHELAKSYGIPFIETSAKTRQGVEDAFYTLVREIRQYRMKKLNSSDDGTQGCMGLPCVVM

| Compound | NRAS/KRAS (ratio of KD value for NRAS to KD value for KRAS) [1] | IC50 [2] [nM] | HRAS/KRAS (ratio of KD value for HRAS to KD value for KRAS) [3] | Kd [4] [nM] |
| --- | --- | --- | --- | --- |
| CCOC[C@H]1C(=O)N[C@@H]([C@@H](C)CC)C(=O)N2CCC[C@H]2C(=O)N(C)[C@H]2C/C=C\CCN(C2=O)[C@@H](Cc2ccc(C)cc2)C(=O)N(C)CC(=O)N[C@@H](CCc2ccc(C(F)(F)F)c(OC)c2)C(=O)N2C[C@@H](C)C[C@H]2C(=O)NC2(CC(C)(C)C2)C(=O)N(C)[C@@H](C2CCCC2)C(=O)N(C)[C@H](C(=O)N(C)CC)CC(=O)N1C [PP2427] | AA (a compound having 20 or more is denoted as AA) | 36.6 | A (a compound having 10 or more and less than 20 is denoted as A) | 0.7 |
| CCOC[C@H]1C(=O)N[C@@H]([C@@H](C)CC)C(=O)N2CCC[C@H]2C(=O)N(C)[C@H]2C/C=C\CCN(C2=O)[C@@H](Cc2ccc(C)cc2)C(=O)N(C)CC(=O)N[C@@H](CCc2cc(F)c(C(F)(F)F)c(F)c2)C(=O)N2C[C@H](OCC)C[C@H]2C(=O)NC2(CC(C)(C)C2)C(=O)N(C)[C@@H](C2CCCC2)C(=O)N(C)[C@H](C(=O)N(C)CC)CC(=O)N1C [PP2428] | A (a compound having 10 or more and less than 20 is denoted as A) | 4.8 | A (a compound having 10 or more and less than 20 is denoted as A) | 0.62 |
| CCCOC[C@H]1C(=O)N[C@@H]([C@@H](C)CC)C(=O)N2CCC[C@H]2C(=O)N(C)[C@H]2C/C=C\CCN(C2=O)[C@@H](Cc2ccc(C)cc2)C(=O)N(C)CC(=O)N[C@@H](CCc2ccc(C(F)(F)F)c(OC)c2)C(=O)N2C[C@@H](C)C[C@H]2C(=O)NC2(CC(C)(C)C2)C(=O)N(C)[C@@H](C2CCCC2)C(=O)N(C)[C@H](C(=O)N(C)CC)CC(=O)N1C [PP2429] | A (a compound having 10 or more and less than 20 is denoted as A) | 8.3 | B (a compound having 3 or more and less than 10 is denoted as B) | 4.5 |
| CCCOC[C@H]1C(=O)N[C@@H]([C@@H](C)CC)C(=O)N2CCC[C@H]2C(=O)N(C)[C@H]2C/C=C\CCN(C2=O)[C@@H](Cc2ccc(C)cc2)C(=O)N(C)CC(=O)N[C@@H](CCc2cc(F)c(C(F)(F)F)c(F)c2)C(=O)N2C[C@H](C)C[C@H]2C(=O)NC2(CC(C)(C)C2)C(=O)N(C)[C@@H](C2CCCC2)C(=O)N(C)[C@H](C(=O)N(C)CC)CC(=O)N1C [PP2430] | AA (a compound having 20 or more is denoted as AA) | 33.2 | A (a compound having 10 or more and less than 20 is denoted as A) | 1.4 |
| CCCOC[C@H]1C(=O)N[C@@H]([C@@H](C)OCC)C(=O)N2CCC[C@H]2C(=O)N(C)[C@H]2C/C=C\CCN(C2=O)[C@@H](Cc2ccc(C)cc2)C(=O)N(C)CC(=O)N[C@@H](CCc2ccc(C(F)(F)F)c(OC)c2)C(=O)N2C[C@@H](C)C[C@H]2C(=O)NC2(CC(C)(C)C2)C(=O)N(C)[C@@H](C2CCCC2)C(=O)N(C)[C@H](C(=O)N(C)CC)CC(=O)N1C [PP2431] | A (a compound having 10 or more and less than 20 is denoted as A) | 79.5 | A (a compound having 10 or more and less than 20 is denoted as A) | 2.3 |
| CCCOC[C@H]1C(=O)N[C@@H]([C@@H](C)OCC)C(=O)N2CCC[C@H]2C(=O)N(C)[C@H]2C/C=C\CCN(C2=O)[C@@H](Cc2ccc(C)cc2)C(=O)N(C)CC(=O)N[C@@H](CCc2cc(F)c(C(F)(F)F)c(F)c2)C(=O)N2C[C@H](OCC)C[C@H]2C(=O)NC2(CC(C)(C)C2)C(=O)N(C)[C@@H](C2CCCC2)C(=O)N(C)[C@H](C(=O)N(C)CC)CC(=O)N1C [PP2432] | A (a compound having 10 or more and less than 20 is denoted as A) | 138 | A (a compound having 10 or more and less than 20 is denoted as A) | 1.4 |
